Measurements published in paper doi:10.1101/2025.11.20.689572v1 (biorxiv, 2025).

Key:
[1] = biological target: T1, D1 (Homo sapiens, UniProt P21728); assay: competitive radioligand binding, HEK293 membranes
T1 construct: gene DRD1; full-length receptor; HEK293 cell membranes
Source text: competitive radioligand binding, HEK293 membranes on D1

[2] = biological target: T2, 5-HT5A (Homo sapiens, UniProt P47898); assay: competitive radioligand binding, HEK293 membranes
T2 construct: gene HTR5A; full-length receptor; HEK293 cell membranes
Source text: competitive radioligand binding, HEK293 membranes on 5-HT5A

[3] = biological target: T3, HTR2C (Homo sapiens, UniProt P28335); assay: cell-based; set-up: species or system HEK293; Fluo-4 Direct calcium mobilization on FLIPR-Tetra; conditions: HEK293, read-out: N-Desmethyl Xanomeline; Assay=Calcium; agonist mode, % of control agonist
T3 sequence (P28335 1-458): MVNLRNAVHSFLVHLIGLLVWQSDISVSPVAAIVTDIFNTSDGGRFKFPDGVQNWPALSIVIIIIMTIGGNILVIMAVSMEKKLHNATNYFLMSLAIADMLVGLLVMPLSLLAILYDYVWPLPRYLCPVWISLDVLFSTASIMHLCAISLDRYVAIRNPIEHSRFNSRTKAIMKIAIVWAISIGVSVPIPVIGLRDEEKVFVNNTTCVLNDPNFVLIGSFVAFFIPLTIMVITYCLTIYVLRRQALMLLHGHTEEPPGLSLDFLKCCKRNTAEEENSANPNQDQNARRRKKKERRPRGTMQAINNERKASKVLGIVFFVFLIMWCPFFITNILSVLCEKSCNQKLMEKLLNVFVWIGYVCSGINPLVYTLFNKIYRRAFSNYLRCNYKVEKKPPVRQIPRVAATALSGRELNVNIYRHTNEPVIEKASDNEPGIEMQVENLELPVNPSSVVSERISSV

[4] = biological target: α1A (Homo sapiens, UniProt P35348); assay: competitive radioligand binding, HEK293 membranes; set-up: gene ADRA1A; full-length receptor; HEK293 cell membranes
Source text: competitive radioligand binding, HEK293 membranes on α1A

[5] = biological target: T4, M4 (Homo sapiens, UniProt P08173); assay: competitive radioligand binding, HEK293 membranes
T4 construct: gene CHRM4; full-length receptor; HEK293 with TRUPATH sensors (function)
T4 sequence (P08173 1-479): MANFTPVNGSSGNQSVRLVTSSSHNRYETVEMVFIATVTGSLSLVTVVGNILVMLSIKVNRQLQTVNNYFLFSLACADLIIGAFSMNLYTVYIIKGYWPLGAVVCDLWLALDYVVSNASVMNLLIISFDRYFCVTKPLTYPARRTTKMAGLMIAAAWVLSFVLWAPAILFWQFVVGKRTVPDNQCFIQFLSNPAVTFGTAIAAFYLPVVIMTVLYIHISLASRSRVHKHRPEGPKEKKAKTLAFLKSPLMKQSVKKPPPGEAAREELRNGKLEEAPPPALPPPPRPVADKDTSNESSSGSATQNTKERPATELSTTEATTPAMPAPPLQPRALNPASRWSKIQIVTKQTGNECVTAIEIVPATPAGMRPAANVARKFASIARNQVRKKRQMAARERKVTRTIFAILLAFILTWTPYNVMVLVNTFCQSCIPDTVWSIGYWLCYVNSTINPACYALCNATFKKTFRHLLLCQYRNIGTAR

[6] = biological target: T5, 5-HT1D (Homo sapiens, UniProt P28221); assay: competitive radioligand binding, HEK293 membranes
T5 construct: gene HTR1D; full-length receptor; HEK293 with TRUPATH sensors (function)

[7] = biological target: CHRM3 (Homo sapiens, UniProt P20309); assay: cell-based
[8] = biological target: T6, H4 (Homo sapiens, UniProt Q9H3N8); assay: competitive radioligand binding, HEK293 membranes
T6 construct: gene HRH4; full-length receptor; HEK293 cell membranes
Source text: competitive radioligand binding, HEK293 membranes on H4

[9] = biological target: T7, M2 (Homo sapiens, UniProt P08172); assay: competitive radioligand binding, HEK293 membranes
T7 construct: gene CHRM2; full-length receptor; HEK293 with TRUPATH sensors (function)
T7 sequence (P08172 1-466): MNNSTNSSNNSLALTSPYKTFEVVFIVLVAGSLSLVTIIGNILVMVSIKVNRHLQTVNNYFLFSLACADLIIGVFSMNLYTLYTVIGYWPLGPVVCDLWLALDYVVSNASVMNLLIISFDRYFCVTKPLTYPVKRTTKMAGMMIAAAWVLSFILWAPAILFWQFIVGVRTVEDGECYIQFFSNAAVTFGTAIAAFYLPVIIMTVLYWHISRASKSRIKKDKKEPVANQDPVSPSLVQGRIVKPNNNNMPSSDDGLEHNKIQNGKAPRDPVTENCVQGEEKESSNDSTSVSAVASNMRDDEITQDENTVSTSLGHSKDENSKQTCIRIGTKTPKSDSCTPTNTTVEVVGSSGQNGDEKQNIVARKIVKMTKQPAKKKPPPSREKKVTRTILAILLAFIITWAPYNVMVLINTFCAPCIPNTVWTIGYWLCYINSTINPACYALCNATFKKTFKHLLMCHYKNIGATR

[10] = biological target: HTR2A (Homo sapiens, UniProt P28223); assay: cell-based; set-up: TRUPATH BRET2 G-protein dissociation; antagonist mode against agonist EC80; conditions: HEK293, read-out: N-Desmethyl Xanomeline, Assay=Gq; agonist mode, % of control agonist
HTR2A, sequence (P28223 whole entry): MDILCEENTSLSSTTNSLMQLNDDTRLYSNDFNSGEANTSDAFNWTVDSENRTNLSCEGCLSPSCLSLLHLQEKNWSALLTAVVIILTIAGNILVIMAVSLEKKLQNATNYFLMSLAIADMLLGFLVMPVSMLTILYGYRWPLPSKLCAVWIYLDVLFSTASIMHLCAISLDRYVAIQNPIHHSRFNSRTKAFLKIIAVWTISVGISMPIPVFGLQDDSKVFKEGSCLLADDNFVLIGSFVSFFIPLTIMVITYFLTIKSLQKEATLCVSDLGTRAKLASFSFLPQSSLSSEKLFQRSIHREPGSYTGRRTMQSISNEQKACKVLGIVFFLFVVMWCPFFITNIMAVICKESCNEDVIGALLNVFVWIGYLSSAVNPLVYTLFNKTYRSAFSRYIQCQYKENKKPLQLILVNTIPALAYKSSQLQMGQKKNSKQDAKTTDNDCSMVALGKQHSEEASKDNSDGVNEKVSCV

α1A, sequence (P35348 whole entry): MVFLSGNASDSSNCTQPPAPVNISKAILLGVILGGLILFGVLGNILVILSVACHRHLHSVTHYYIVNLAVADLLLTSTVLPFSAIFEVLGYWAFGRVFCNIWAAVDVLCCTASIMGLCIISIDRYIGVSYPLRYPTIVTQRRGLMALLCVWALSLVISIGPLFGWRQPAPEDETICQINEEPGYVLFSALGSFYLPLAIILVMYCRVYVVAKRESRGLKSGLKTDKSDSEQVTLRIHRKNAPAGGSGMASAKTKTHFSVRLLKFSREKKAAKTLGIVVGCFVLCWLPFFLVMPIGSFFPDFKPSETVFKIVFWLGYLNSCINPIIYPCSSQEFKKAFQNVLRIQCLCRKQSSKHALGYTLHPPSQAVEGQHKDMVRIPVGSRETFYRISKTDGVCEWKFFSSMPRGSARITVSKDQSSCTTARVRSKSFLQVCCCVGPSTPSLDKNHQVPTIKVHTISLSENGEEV
CHRM3, sequence (P20309 whole entry): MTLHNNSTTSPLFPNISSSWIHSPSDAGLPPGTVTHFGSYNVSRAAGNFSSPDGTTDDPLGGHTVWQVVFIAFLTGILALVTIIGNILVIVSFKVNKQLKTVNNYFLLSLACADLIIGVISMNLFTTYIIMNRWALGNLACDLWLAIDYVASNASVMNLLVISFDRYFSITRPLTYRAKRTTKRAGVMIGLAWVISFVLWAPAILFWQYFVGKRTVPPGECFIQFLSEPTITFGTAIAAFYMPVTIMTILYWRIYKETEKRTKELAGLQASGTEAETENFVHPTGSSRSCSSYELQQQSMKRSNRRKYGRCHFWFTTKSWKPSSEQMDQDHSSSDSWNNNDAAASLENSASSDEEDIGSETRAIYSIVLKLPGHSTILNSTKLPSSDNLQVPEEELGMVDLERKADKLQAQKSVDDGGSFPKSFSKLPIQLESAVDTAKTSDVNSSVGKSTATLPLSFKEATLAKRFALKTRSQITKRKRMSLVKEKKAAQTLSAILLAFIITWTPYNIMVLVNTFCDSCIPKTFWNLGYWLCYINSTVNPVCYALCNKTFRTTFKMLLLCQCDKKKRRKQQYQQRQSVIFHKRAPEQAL
T1 sequence (P21728 whole entry): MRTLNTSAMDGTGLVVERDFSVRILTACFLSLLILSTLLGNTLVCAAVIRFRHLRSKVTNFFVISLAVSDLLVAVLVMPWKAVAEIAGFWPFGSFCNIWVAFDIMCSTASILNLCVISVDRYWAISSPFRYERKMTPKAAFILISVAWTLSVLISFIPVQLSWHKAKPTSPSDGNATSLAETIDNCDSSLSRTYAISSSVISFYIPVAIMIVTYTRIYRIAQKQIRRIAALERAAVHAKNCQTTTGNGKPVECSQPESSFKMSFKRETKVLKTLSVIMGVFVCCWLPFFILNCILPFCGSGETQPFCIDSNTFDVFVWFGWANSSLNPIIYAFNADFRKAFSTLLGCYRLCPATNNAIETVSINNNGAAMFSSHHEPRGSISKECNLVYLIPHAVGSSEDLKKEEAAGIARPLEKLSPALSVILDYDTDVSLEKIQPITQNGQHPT
T2 sequence (P47898 whole entry): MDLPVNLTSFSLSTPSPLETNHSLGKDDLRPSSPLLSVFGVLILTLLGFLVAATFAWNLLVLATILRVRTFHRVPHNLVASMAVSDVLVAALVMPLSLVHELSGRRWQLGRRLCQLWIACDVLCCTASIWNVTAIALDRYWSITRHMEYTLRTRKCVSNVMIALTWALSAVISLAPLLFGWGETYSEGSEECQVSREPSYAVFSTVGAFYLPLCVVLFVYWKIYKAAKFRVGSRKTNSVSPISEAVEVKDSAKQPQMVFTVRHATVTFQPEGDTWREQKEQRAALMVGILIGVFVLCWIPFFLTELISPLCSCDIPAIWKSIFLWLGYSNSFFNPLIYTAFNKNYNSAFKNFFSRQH
T5 sequence (P28221 whole entry): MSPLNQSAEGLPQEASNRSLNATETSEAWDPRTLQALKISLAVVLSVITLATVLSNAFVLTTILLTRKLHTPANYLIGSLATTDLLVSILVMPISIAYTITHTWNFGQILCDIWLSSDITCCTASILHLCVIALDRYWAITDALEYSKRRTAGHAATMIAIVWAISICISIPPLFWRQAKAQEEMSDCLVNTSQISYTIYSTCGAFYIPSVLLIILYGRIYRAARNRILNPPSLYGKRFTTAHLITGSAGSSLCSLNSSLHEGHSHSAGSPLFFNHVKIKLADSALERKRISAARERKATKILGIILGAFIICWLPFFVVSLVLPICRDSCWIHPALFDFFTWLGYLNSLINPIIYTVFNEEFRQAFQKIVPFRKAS
T6 sequence (Q9H3N8 whole entry): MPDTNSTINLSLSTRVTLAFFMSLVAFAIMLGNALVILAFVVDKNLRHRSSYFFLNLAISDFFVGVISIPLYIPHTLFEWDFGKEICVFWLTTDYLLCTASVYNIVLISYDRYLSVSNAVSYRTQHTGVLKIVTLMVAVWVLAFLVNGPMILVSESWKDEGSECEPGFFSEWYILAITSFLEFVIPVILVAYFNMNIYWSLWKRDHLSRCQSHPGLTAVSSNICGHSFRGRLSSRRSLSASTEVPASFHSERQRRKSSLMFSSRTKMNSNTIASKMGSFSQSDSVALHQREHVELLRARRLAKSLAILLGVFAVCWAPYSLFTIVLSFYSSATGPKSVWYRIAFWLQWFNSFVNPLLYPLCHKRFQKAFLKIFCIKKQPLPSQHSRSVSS

Row | Structure (SMILES) | Ki [1] [nM] | Ki [2] [nM] | Emax [3] [%] | Ki [4] [nM] | Ki [5] [nM] | Ki [6] [nM] | EC50 [7] [nM] | Ki [8] [nM] | Ki [9] [nM] | Emax [10] [%]
1 | CCCCCCOc1nsnc1C1=CCCN(C)C1 [Xanomeline] | 1580 | 794 |  |  |  |  |  |  |  | 
2 | CCCCCCOc1nsnc1C1=CCCNC1 [N-desmethylxanomeline] |  |  | 59 | 282 | 117 | 38.9 | 380 | 363 | 1450 | 98.1
